Literature values in paper PMC6673652 (Nature protocols, 2018).
Like-named read-outs stand apart in the source and are kept apart here.

Columns and labels:
[1] = Cy5.5-labeled peptide, 5 μM, 3 hrs, previously tested

Compound | BBB penetration in vivo (in vivo) | BBB organoid permeability (BBB organoids) | further results
TFFYGGSRGKRNNFKTEEY [Angiopep-2] | Yes[6],[29] | High | BBB crossing as known from literature (in vivo): known to cross the BBB via receptor mediated transcytosis
ZSQIKIWFQNKRAKIKK [Engrailed-2] | – | Very high | –
ZVPALR [Bip(1)] | Yes [6] | Very high | –
ZRQIKIWFQNRRMKWKK [Penetratin] | Yes [31] | High | –
ZPPRPPRPPR [(PPR)3] | – | High | –
ZVSALK [Bip(2)] | Yes [6] | Very high | –
ZAGYLLGKINLKALAALAKKIL [Transportan 10] | – | – | BBB organoid permeability (BBB organoids; [1]): High
CC(C)(C)c1nc(-c2cccc(NS(=O)(=O)c3c(F)cccc3F)c2F)c(-c2ccnc(N)n2)s1 [Dabrafenib] | – | – | BBB penetration as known from literature: limited BBB penetration
ZHARIKPTFRRLKWKYKGKFW [L-2] | – | High | –
ZRGGRLSYSRRRFSTSTGR [SynB1] | Yes [31] | – | –
ZVELPPPVELPPPVELPPP [SAP(E)] | – | High | –
ZKGTYKKKLMRIPLKGT [SVM3] | – | High | –
ZRQVTIWFQNRRVKEKK [HoxA-13] | Yes [6] | Very high | –
ZRRRRRRRR [Polyarginine] | – | High | –
ZPLSSIFSRIGDP [PreS2-TLM] | – | – | BBB organoid permeability (BBB organoids; [1]): High
ZLRRERQSRLRRERQSR [DPV15] | Yes [6] | Very high | –
ZRKKRRQRRR [HIV-1 Tat] | – | – | BBB penetration in vivo: Yes [31]; BBB organoid permeability (BBB organoids; [1]): High
ZPPRPPRPPRPPRPPR [(PPR)5] | – | High | –
ZLYKKGPAKKGRPPLRGWFH [SVM4] | – | High | –
ZVRLPPPVRLPPPVRLPPP [SAP] | – | High | –
Nc1cc(C(F)(F)F)c(-c2cc(N3CCOCC3)nc(N3CCOCC3)n2)cn1 [BKM120] | – | – | BBB crossing as known from literature: known to cross the BBB
ZVKRGLKLRHVRPRVTRMDV [DPV1047] | – | High | –
